This assay concerns the target T1, USP5 (ubiquitin-specific protease 5) (Homo sapiens, UniProt P45974).
T1 sequence (P45974 2-858): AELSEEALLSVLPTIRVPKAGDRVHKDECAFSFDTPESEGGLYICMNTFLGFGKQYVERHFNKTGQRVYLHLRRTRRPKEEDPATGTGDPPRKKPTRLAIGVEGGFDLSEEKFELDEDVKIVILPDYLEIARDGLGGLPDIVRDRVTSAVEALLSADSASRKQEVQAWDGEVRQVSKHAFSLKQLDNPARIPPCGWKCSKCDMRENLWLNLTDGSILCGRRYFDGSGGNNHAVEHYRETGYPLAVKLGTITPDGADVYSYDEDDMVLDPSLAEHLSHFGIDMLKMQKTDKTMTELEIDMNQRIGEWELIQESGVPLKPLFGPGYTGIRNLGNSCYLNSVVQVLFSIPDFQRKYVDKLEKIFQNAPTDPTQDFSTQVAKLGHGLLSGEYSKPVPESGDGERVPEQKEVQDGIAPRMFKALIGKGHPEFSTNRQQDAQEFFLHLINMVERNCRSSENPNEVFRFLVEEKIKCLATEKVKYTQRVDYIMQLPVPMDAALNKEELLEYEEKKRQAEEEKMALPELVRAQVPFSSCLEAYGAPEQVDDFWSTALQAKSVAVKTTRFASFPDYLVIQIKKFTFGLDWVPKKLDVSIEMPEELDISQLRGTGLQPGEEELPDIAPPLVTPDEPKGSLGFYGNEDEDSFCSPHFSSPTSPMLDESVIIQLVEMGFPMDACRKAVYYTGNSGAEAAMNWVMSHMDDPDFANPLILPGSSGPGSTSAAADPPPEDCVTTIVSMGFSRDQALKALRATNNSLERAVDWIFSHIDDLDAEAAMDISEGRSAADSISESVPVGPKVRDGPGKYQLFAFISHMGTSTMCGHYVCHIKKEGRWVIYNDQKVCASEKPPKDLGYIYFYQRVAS
Nature of the assay: SPR. It counts as binding.

For the molecule `COc1ccc(-c2coc3cc(O)ccc3c2=O)cc1` [Formononetin], binding was put at a Kd of 25.1 µM.
